29 compounds from PubChem BioAssay AID179 (DTP/NCI, 2004) can be followed below.

The assay deals with CEM cells HIV-1 protection, formazan growth assay. Nature of the assay: NCI AIDS Antiviral Assay. The note with it: for IC50: measured here: growth of uninfected CEM cells. In outline: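 CEM (human) cells, HIV-1 infected vs uninfected, 5-point dosing, formazan growth read-out. Retest threshold 50% protection.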

Activity calls are given as the source filed them.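 Rule for the calls: active = compounds giving half or more protection of infected cells from virus-caused growth loss, again on retest; inactive = the rest.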

With `CCOP(=O)(OCC)/C(C#N)=C/c1cnc[nH]1`, the EC50 was over 200 µM and the IC50 is over 200 µM. Turning to `C[N+]12CN3CN(CP(C3)C1)C2`, the EC50 was over 832 µM. For the compound `Cn1c(=O)c2nccnc2n(C)c1=O`, the EC50 was 178 µM and the IC50 is over 200 µM. The matching figures for `COc1ccc2c(c1O)-c1c(O)cccc1CCN(C)CC2`: over 200 µM and over 200 µM. On the same counts, the results for `COc1ccc(NCC(=O)Nn2c(-c3ccccc3)nc3ccccc3c2=O)cc1` are over 200 µM and 17.8 µM.

With `S=C1Cc2c([nH]c3ccccc23)-c2ccccc2N1`, the EC50 is over 200 µM and the IC50 was 129 µM. On the same counts, the results for `CCc1nc2cc(F)ccc2[nH]c1=O` are over 200 µM and 132 µM. Consider `O=C1/C(=C/c2ccccc2[N+](=O)[O-])CCCc2ccccc21`, for which the EC50 was over 200 µM and the IC50 came out at 34.7 µM. The matching figures for `Nc1cc(N)c(N=Nc2ccc(CCc3ccc(N=Nc4c(N)cc(N)cc4C(=O)O)cc3S(=O)(=O)O)c(S(=O)(=O)O)c2)c(C(=O)O)c1`: over 1020 µM and 174 µM. Take `Cc1[nH]n(-c2ccccc2)c(=O)c1C=NC(=S)C(N)=S`: the EC50 is over 200 µM and the IC50 turned out to be 56.2 µM. Turning to `c1cnc2c(c1)-n1cccc1C1(CCSC1)NN2` (stereo not given), the EC50 was over 138 µM and the IC50 was over 138 µM. As to `O=c1c(-c2ccccc2)coc2cc(O)ccc12`, the EC50 was over 200 µM and the IC50 turned out to be 52.5 µM.

On to `CN1CCN(CCSC2Cc3cc(Cl)ccc3Sc3ccccc32)CC1` (stereo not given), for which the EC50 was over 64.6 µM and the IC50 came out at 7.76 µM. On the same counts, the results for `Cc1cc2c(cc1Cl)S(=O)(=O)OC(c1ccc([N+](=O)[O-])cc1)=N2` are over 200 µM and 115 µM.

For `COC1=CC(=O)C(O)=C(CC2(C)C(C)CCC3(C)C2CCCC3(C)C)C1=O` (stereo not given), the EC50 was over 95.5 µM and the IC50 is 6.46 µM.

As to `O=C1NC2Cc3ccccc3C(C2)O1` (stereo not given), the EC50 is over 200 µM and the IC50 is over 200 µM. In the case of `CC(C)CCC[C@@H](C)C1CCC2[C@@H]3CC=C4C[C@@H](OP(=O)(O)OP(=O)(O)O)CC[C@]4(C)C3CC[C@@]21C` (stereo not given in full), the EC50 is over 6.17 µM and the IC50 is over 6.17 µM. As to `COC(=O)C1=Nc2c(C)nn(-c3ccccc3)c2N=C(c2ccc(C)cc2)C1`, the EC50 is over 200 µM and the IC50 was over 200 µM. Turning to `Cc1cc(NS(=O)(=O)c2ccc(NC(NC(=O)OC(C)C)(C(F)(F)F)C(F)(F)F)cc2)nc(C)n1`, the EC50 was over 200 µM and the concentration for half-maximal inhibition (IC50) is over 200 µM. As for `CCN1CCNc2c3cc(OC)ccc3nc3c([N+](=O)[O-])ccc1c23`, the EC50 is over 200 µM and the half-inhibitory concentration (IC50) was 0.11 µM. `Cc1nc(N)nc(N)c1CCCCc1ccc(N)cc1`: the outcome was inactive. Turning to `COC(=O)N1c2c(ccc3c2OCO3)C23C4CN5CCCC(CCC12C(=O)OC)(CC4=O)C53` (stereo not given), the EC50 is over 7.94 µM and the concentration for half-maximal inhibition (IC50) is over 7.94 µM. As to `CC(=O)NC1CCC(NC(=O)OC(C)(C)C)C(NC(=O)OC(C)(C)C)C1` (stereo not given), the EC50 was over 200 µM and the IC50 is over 200 µM. As for `COc1ccc(N=Cc2cc(OC)c(OC)c(OC)c2)cc1`, the EC50 is over 33.1 µM and the half-inhibitory concentration (IC50) is over 33.1 µM. For the compound `COc1ccc2c(c1)[n+](=O)c(C(=O)C/C(=N/NC(=O)C[N+](C)(C)C)C(=O)Nc1cccc(C)c1C)c(C)n2O`, the EC50 is over 6.31 µM and the IC50 was over 6.31 µM. For the compound `COc1cc(C=C2C(=O)OC(C)(C)OC2=O)cc(OC)c1OC`, the EC50 is over 776 µM and the 50% inhibitory concentration (IC50) worked out at 83.2 µM. The matching figures for `COc1ccc(/C=C/C(=O)c2cccc(C(=O)/C=C/c3ccc(OC)c(OC)c3)n2)cc1OC`: over 200 µM and 110 µM. As to `O=C(O)c1ccc(N=Nc2cc(S(=O)(=O)O)c3cccnc3c2O)cc1`, the EC50 is over 19.5 µM and the IC50 is over 19.5 µM. As for `CC(=O)Nc1cc(NC(C)=O)c(N=O)c(NC(C)=O)n1`, the result was inactive.
